Experimental data: patent publication US5670520A, “Method for inhibiting virus replication in mammalian cells using carbostyil derivatives” (Otsuka Pharmaceutical Co., Ltd., priority 1996, dated 1997)

How the values were obtained:
human T cells = test: Cellular DNA content by flow cytometry (propidium iodide); assay type: cell-based; conditions: within 48 hrs; 250 μM vesnarinone, 15 nM aphidicolin or 100 μM deferoxamine
Description: Next, cellular DNA content was evaluated over the 0-120 hrs treatment period. More specifically, 10^6 T cells treated in the same manner as described above, were fixed with 70% (v/v) ethanol at 4° C. overnight, centrifuged and washed with phosphate buffered saline (PBS). The fixed cells were incubated with 0.5 ml of 0.25 mg/ml ribonuclease (Sigma, St. Louis, Mo.) in PBS at 37° C. for 10 min. The cell suspension was mixed with 0.5 ml of a 50 μg/ml propidium iodide (Calbiochem, La Jolla, Calif.) solution in PBS, and after 60 min analyzed by flow cytometry (EPICS Profile, Coulter, Hialeah, Fla.), collecting red fluorescence (>600 nm) with 488 nm excitation.

[1] = test system: nucleoside and nucleobase transport in human T cells; test: [3H]nucleoside / [3H]nucleobase transport, 1 min pulse, T cells; assay type: cell-based; conditions: 250 μM vesnarinone, 100 μM deferoxamine, 15 nM aphidicolin or 1.0 μM dipyridamole
CHO cells [2] = test: Rescue of CHO cells from cytostatic effects of 5-FUd; assay type: cell-based, Chinese hamster; conditions: 50 nM 5-FUd, 120 hrs; 0-250 μM vesnarinone or 1.0-10 μM dipyridamole
Text: Nucleoside transport inhibitors, such as dipyridamole or NBMPR, are known to rescue cell proliferation from the cytotoxic effects of 5-fluorouridine(5-FUd) or high dose thymidine, by inhibiting transport of this cytotoxic nucleoside analog or thymidine (Aronow et al, Mol. Cell Biol., 6:2957-2962 (1986)).

EBNA2, LMP1, bcl-2 = test: Western blot of EBNA2, LMP1 and bcl-2 in Burkitt's lymphoma cell lines; assay type: cell-based, human; conditions: 20 μg/ml vesnarinone 7 days
Text: The cell lines included Akata (type A, group I), Raji (type A, group III), P3HR1 (type B, group I) (ATCC No. HTB-62), and Jijoye (type B, group III) (ATCC No. CCL-87). The molecules examined were a latent nuclear protein, EBNA2, a latent membrane protein, LMP1, and an anti-apoptotic host component, bcl-2. […] These differences between the two phenotypes have been related to the sensitivity to induce apoptosis, and the ability to induce the productive phase of EBV infection (Henderson et al, Cell, 65:1107-1115 (1991); and Gregory et al, Nature, 349:612-614 (1991)).
For detection of EBNA2, LMP1, and bcl-2, the mouse monoclonal anti-EBNA2 (PE2, Accurate, Westbury, N.Y.) (Young et al, N. Engl. J. Med., 321:1080-1085 (1989)), the mouse monoclonal anti-LMP1 (S12, provided by Dr. David A. Thorley-Lawson) (Mann et al, J. Virol., 55:710-720 (1985)), and the monoclonal anti-bcl-2 (bcl-2/124, Accurate) (Pezzella et al, Am. J. Pathol., 137:225-232 (1990)), respectively, were used. The ECL chemiluminescence method was used for the detection of these proteins.

[3] = test system: Akata, P3HR1, Jijoye, Raji; test: Cell growth of Burkitt's lymphoma cell lines, 7 days; assay type: cell-based; conditions: Homo sapiens, Burkitts lymphoma cell, 168 h; read-out: cell growth (cell numbers) relative to control cultures
thymidine kinase = test: Thymidine kinase activity in extracts of treated Akata cells; assay type: cell-based; conditions: 100 μg/ml vesnarinone
Description: The pellet of frozen cells was suspended in 100 μl of kinase extraction buffer comprising 50 mM Tris (pH 8.0), 50 mM KCl, 1.0 mM MgCl2, 1.0 mM ATP, 1.0 mM DTT, 5.0% (v/v) glycerol, 80 μg/ml aprotinin, 40 μM leupeptin and 1.0 mM PMSF, and incubated on ice for 30 min after a brief sonication. The nuclei were removed by high speed centrifugation for 15 min and the supernatant (kinase extract) was aliquoted and stored at -70° C. The protein concentration of the kinase extract (about 4.0 mg/ml) was determined using standard Bradford Reagent (Bio-Rad Protein Assay Kit, Bio-Rad Laboratories, Hercules, Calif.), with BSA as a protein standard.
5.0 μl of the kinase extract was incubated at 37° C. with 35 µl of kinase reaction buffer comprising 150 mM phosphate (pH 7.5), 20 mM ATP, 20 mM MgCl2, 40 mM KCl, 1.0 mM DTT, 10 mM NaF and 20 μM [^3 H]thymidine (6.7 Ci/mmole, ICN) for 5 or 15 min. The reaction was terminated by placing on ice, and an addition of 4.0 μl of 0.5M EDTA (pH 8.0). […]
The amount of phosphorylated [^3 H]thymidine derivatives formed during the reaction was determined by applying the reaction mixtures onto Whatman DE-81 paper filters, which were then washed four times in 1.0 mM ammoniumformate (pH 8.0), and once in ethanol before drying and liquid scintillation counting. […]

[4] = test system: PHA-activated human T lymphocytes; test: Accumulation of phosphorylated [3H]thymidine / [3H]AZT in PHA-activated human T lymphocytes; assay type: cell-based; conditions: 0, 75 or 250 μM vesnarinone; 0-120 min
Text: Similar results were obtained when using U937 cells, in place of the PHA-activated human T lymphocytes.

[5] = 31 μg/ml vesnarinone in overlay medium
[6] = some patients; cited from earlier work
CHO cells [7] = test: [3H]adenosine / [3H]adenine transport in CHO cells; conditions: 0-750 μM vesnarinone or 0-100 μM dipyridamole, 1 min pulse
Raji cells = test: [3H]adenosine / [3H]adenine transport in Raji cells; conditions: 0-750 μM vesnarinone or 0-100 μM dipyridamole, 1 min pulse
U937 cells = test: Intracellular phosphorylated AZT in U937 cells (DEAE filter); conditions: 0-250 μM vesnarinone or 0-100 nM dipyridamole; 2 hr

Question: Which “entry into S and G2/M phases (cellular DNA content)” value (human T cells) does the source give for COc1ccc(C(=O)N2CCN(c3ccc4c(c3)CCC(=O)N4)CC2)cc1OC [vesnarinone, 3,4-dihydro-6-[4-(3,4-dimethoxybenzoyl)-1-piperazinyl]-2(1H)-quinoline] here?
Answer: a certain proportion of the cells entered both S and G2/M phases of the cell cycle

Question: And the “transport of [3H]thymidine, [3H]adenosine, [3H]adenine, [3H]uracil” value [1]?
Answer: inhibited transportation of [^3 H]thymidine, [^3 H]adenosine, [^3 H]adenine, and also to a lesser extent, [^3 H]uracil

Question: What about the “reversal of cytostatic effects of 5-FUd (cell number)” value (CHO cells [2]) of the same compound?
Answer: demonstrated a similar ability to rescue the cells in a dose-dependent manner

Question: What about the “expression of EBNA2, LMP1, bcl-2” value (EBNA2, LMP1, bcl-2; group I lines (Akata, P3HR1)) of the same compound?
Answer: did not induce these molecules in the group I lines

Question: What about the “expression of EBNA2, LMP1, bcl-2” value (EBNA2, LMP1, bcl-2; group III lines (Raji, Jijoye)) of the same compound?
Answer: nor did the vesnarinone alter levels of expression of these molecules in the group III lines

Question: And the activity at 20 µg/mL [3]?
Answer: 80 to 90%

Question: What about the “increase in dTTP-resistant thymidine kinase” value (thymidine kinase; 100 μM dTTP in reaction) of the same compound?
Answer: partially suppressed by vesnarinone treatment

Question: And the “increase in whole thymidine kinase activity in anti-IgG treated cells” value (thymidine kinase; without dTTP)?
Answer: partially inhibited in the presence of vesnarinone

Question: And the “accumulation of phosphorylated AZT” value [4]?
Answer: augmented the accumulation of phosphorylated AZT

Question: And the “accumulation of phosphorylated [3H]thymidine” value [4]?
Answer: delayed the accumulation of phosphorylated [^3 H]thymidine

Question: And the “precipitate observed in culture” value [5]?
Answer: A small amount of precipitate was observed at 31 μg/ml of vesnarinone

Question: What about the “major side effect in patients” value [6] of the same compound?
Answer: agranulocytosis, a major side effect of vesnarinone observed in some patients

Question: What about the “[3H]adenosine and [3H]adenine transport” value (CHO cells [7]) of the same compound?
Answer: inhibitory effects on nucleoside and nucleobase transport in vitro were observed within the therapeutic range

Question: And the “[3H]adenosine and [3H]adenine transport” value (Raji cells)?
Answer: inhibitory effects on nucleoside and nucleobase transport in vitro were observed within the therapeutic range

Question: And the “intracellular concentration of phosphorylated AZT” value (U937 cells)?
Answer: increased the concentration of phosphorylated AZT in U937 cells in a dose-dependent manner
